ChEMBL document CHEMBL1201862, “PubChem BioAssay data set” (2004)
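Dose response: 5 concentrations. Exposure: 48 h. Format: 96-well plates. Endpoint: linear interpolation; highest concentration if not reached. Here, GI50 denotes the concentration required for 50% inhibition of growth.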 The source made the active and inactive calls. Cut-off read from the data, not from the text of the source: active = GI50 up to about 1.1 µM and inactive = higher.

Tests used:
Test in all cases: inhibition of tumour cell growth, NCI panel, 48 h
[1] = tested on: DLD-1
[2] = tested on: DMS-114
[3] = tested on: DMS-273
[4] = tested on: HOP-18
[5] = tested on: KM-20L2
[6] = tested on: M19-MEL
[7] = tested on: RXF 631
[8] = tested on: SNB-78
[9] = tested on: XF498

SMILES | GI50 [1] | GI50 [2] | GI50 [3] | GI50 [4] | GI50 [5] | GI50 [6] | GI50 [7] | GI50 [8] | GI50 [9]
COc1ccc(C(=O)/C(=N/Nc2ccccc2)c2ccc(OC)cc2)cc1 | 6.87 µM (inactive) | 58.1 µM (inactive) | 31.6 µM (inactive) | > 100 µM (inactive) | 10.2 µM (inactive) | > 100 µM (inactive) | 8.43 µM (inactive) | > 100 µM (inactive) | > 100 µM (inactive)
CCCN(CCCCC(NC(C)=O)C(=O)NCc1ccccc1)C(=O)N(CCCl)N=O (stereo not given) | > 68.9 µM (inactive) | 98.2 µM (inactive) | 72.6 µM (inactive) | > 100 µM (inactive) | > 100 µM (inactive) | > 82.6 µM (inactive) | > 100 µM (inactive) | > 100 µM (inactive) | > 100 µM (inactive)
O=[N+]([O-])C(/C=N/Nc1ccccc1)/C=N/Nc1ccccc1 | > 100 µM (inactive) | > 100 µM (inactive) | > 100 µM (inactive) | > 100 µM (inactive) | > 100 µM (inactive) | > 100 µM (inactive) |  | > 100 µM (inactive) | > 100 µM (inactive)
COc1ccc(CNC2=C(NC(C)=O)C(=O)c3ccccc3C2=O)cc1 | 8.53 µM (inactive) |  | 16.4 µM (inactive) |  | 28.8 µM (inactive) | 9.48 µM (inactive) |  | 11.9 µM (inactive) | 
Cc1ccc(S(=O)OCc2c(C)c(C)c(COS(=O)c3ccc(C)cc3)c(C)c2C)cc1 (stereo not given) | > 100 µM (inactive) | > 100 µM (inactive) | > 100 µM (inactive) | > 100 µM (inactive) | > 100 µM (inactive) | > 100 µM (inactive) |  | 31.6 µM (inactive) | > 100 µM (inactive)
Cc1nc2ccccc2c(=O)n1NC(=S)Nc1ccc(Cl)cc1[N+](=O)[O-] |  | > 100 µM (inactive) |  |  | > 100 µM (inactive) | > 100 µM (inactive) |  |  | 
COc1ccc(/C=C2\CCC(C)(CN(C)C)C2=O)cc1OC (stereo not given) | > 100 µM (inactive) | > 100 µM (inactive) | > 100 µM (inactive) | > 100 µM (inactive) | > 100 µM (inactive) | > 100 µM (inactive) | > 100 µM (inactive) | > 100 µM (inactive) | 
CNC(=O)CN(CC(=O)O)C(=O)NC | > 100 µM (inactive) |  | > 100 µM (inactive) |  |  | > 100 µM (inactive) | > 100 µM (inactive) | > 100 µM (inactive) | > 100 µM (inactive)
COc1ccc(C2C(Cl)C(=O)N2n2cnc3ccccc3c2=O)cc1OC (stereo not given) |  | > 100 µM (inactive) | > 100 µM (inactive) | 25.3 µM (inactive) | > 100 µM (inactive) | > 100 µM (inactive) |  | > 100 µM (inactive) | > 100 µM (inactive)
C[P+](C)(CC(F)(F)F)c1ccccc1 | > 100 µM (inactive) | > 100 µM (inactive) | > 100 µM (inactive) | > 100 µM (inactive) | > 100 µM (inactive) | > 100 µM (inactive) |  | > 100 µM (inactive) | < 0.01 µM (active)
O=C(CC1(O)C(=O)Nc2c(Cl)cc(Cl)cc21)c1ccc(Br)cc1Br (stereo not given) | 5.48 µM (inactive) | 6.56 µM (inactive) | 7.05 µM (inactive) | 14.4 µM (inactive) | 18.6 µM (inactive) | 9.04 µM (inactive) | 4.66 µM (inactive) | 22.5 µM (inactive) | 11.6 µM (inactive)
N#CCN1CCOCCOCCN(CC#N)CCOCCOCC1 | > 100 µM (inactive) | > 100 µM (inactive) |  | > 100 µM (inactive) | > 100 µM (inactive) | > 100 µM (inactive) | > 100 µM (inactive) | > 100 µM (inactive) | 
COc1cc2c(cc1OC)c1c(OC)c(OC)cc3c1c1c2sc(=S)n1CC3 | 43 µM (inactive) | 29.3 µM (inactive) | 53.1 µM (inactive) | > 100 µM (inactive) | > 100 µM (inactive) | 34.4 µM (inactive) |  | > 100 µM (inactive) | 
C#CC1/C(=C\C(=O)OC)CCCC1O (stereo not given) | > 100 µM (inactive) | > 100 µM (inactive) | > 100 µM (inactive) | > 100 µM (inactive) | > 100 µM (inactive) | > 100 µM (inactive) |  | > 100 µM (inactive) | > 100 µM (inactive)
COc1cc(OC)c2c(=O)c3c([N+](=O)[O-])cccc3n(C)c2c1 | > 100 µM (inactive) | > 100 µM (inactive) | > 100 µM (inactive) | > 100 µM (inactive) | > 100 µM (inactive) | > 100 µM (inactive) |  | > 100 µM (inactive) | 
CC(=O)Oc1cc2c(cc1OC(C)=O)C1(C)CCC2(C)c2cc(OC(C)=O)c(OC(C)=O)cc21 | 17.7 µM (inactive) |  | 19.4 µM (inactive) |  | 26 µM (inactive) | 9.04 µM (inactive) | 23.2 µM (inactive) | 16 µM (inactive) | 11.4 µM (inactive)
CC(C)N1CN(C(C(=O)N[C@@H]2C(=O)N3C2SC(C)(C)C3C(=O)O)c2ccccc2)CSC1=S (stereo not given in full) | > 100 µM (inactive) | 48.5 µM (inactive) | > 100 µM (inactive) | > 100 µM (inactive) | > 100 µM (inactive) | > 100 µM (inactive) |  | > 100 µM (inactive) | > 100 µM (inactive)
COc1ccc2n[se]nc2c1 | > 100 µM (inactive) | > 100 µM (inactive) | > 100 µM (inactive) | < 0.01 µM (active) | > 100 µM (inactive) |  | 61.4 µM (inactive) | > 100 µM (inactive) | > 100 µM (inactive)
CCC(=O)C12OC3OC(C)(C)OC3C1OC(C)(C)O2 (stereo not given) | > 100 µM (inactive) |  | > 100 µM (inactive) |  |  | > 100 µM (inactive) | > 100 µM (inactive) | > 100 µM (inactive) | > 100 µM (inactive)
O=C1CCCC1NC(=O)C(F)(F)F (stereo not given) | > 100 µM (inactive) |  | > 100 µM (inactive) |  |  | > 100 µM (inactive) |  | > 100 µM (inactive) | > 100 µM (inactive)
O=C(O)CN(c1ccccc1)S(=O)(=O)c1ccccc1[N+](=O)[O-] | > 100 µM (inactive) |  | > 100 µM (inactive) | > 100 µM (inactive) | > 100 µM (inactive) | > 100 µM (inactive) | > 100 µM (inactive) |  | > 100 µM (inactive)
COc1cccc(/C=C2\CCC(CCN(C)C)(C3=CCCC3)C2=O)c1 (stereo not given) | 17.8 µM (inactive) | 14.3 µM (inactive) | 14.4 µM (inactive) | 13.7 µM (inactive) |  | 16.4 µM (inactive) | 23.7 µM (inactive) |  | 17.7 µM (inactive)
Oc1cc(-c2cccc(F)c2)nc2cc3c(cc12)OCO3 | 0.252 µM (active) | 0.239 µM (active) | 0.349 µM (active) | 5.42 µM (inactive) |  | 0.272 µM (active) |  | 0.343 µM (active) | 0.495 µM (active)
CN1CCN(CN2C(=O)C3C4C=CC(C3C2=O)C2C3C(=O)N(CN5CCN(C)CC5)C(=O)C3C42)CC1 (stereo not given) | 22.5 µM (inactive) | 17.9 µM (inactive) |  |  | 25 µM (inactive) |  |  |  | 
CCOC(=O)Nc1cc2c(c(N)n1)N=C(c1ccccc1)[C@H](C)N2 [MIVOBULIN ISETHIONATE] | < 0.0001 µM (active) | < 0.0001 µM (active) | < 0.0001 µM (active) | 0.641 µM (active) | < 0.0001 µM (active) | < 0.0001 µM (active) |  | 0.01 µM (active) | < 0.0001 µM (active)
